{"source": "ChEMBL document CHEMBL4739710", "about": "“Tetrahydropyridopyrazines as modulators of GPR6” (2020)", "target": "G-protein coupled receptor 6 (Homo sapiens, UniProt P46095)", "sequence (P46095 whole entry)": "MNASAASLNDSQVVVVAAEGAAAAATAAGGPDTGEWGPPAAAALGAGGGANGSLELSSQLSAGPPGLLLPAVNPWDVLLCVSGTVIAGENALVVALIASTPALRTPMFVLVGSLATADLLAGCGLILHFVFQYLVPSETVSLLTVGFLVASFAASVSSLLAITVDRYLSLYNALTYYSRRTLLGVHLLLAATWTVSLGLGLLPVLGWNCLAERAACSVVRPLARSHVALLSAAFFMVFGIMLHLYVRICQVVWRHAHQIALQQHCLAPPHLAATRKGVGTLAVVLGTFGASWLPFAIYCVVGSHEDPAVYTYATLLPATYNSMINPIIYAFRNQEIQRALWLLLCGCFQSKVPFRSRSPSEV", "assay": "Modulation of GPR6 (unknown origin) expressed in CHO-K1 cells assessed as inhibition of constitutive cAMP activity by HTRF assay", "format": "functional, cell-based"}
{"compound": "Cc1cc2nc(N[C@@H]3CCOC3)c(N3CCN(Cc4ccc(F)cc4F)CC3)nc2cn1", "values": [{"measurement": "EC50", "value": 47.9, "unit": "nM"}]}
